Here are results for 19 compounds from patent US7598258B2, “Quinoline derivatives and quinazoline derivatives inhibiting autophosphorylation of macrophage colony stimulating factor receptor” (Kirin Beer Kabushiki Kaisha, priority 2002, dated 2009).

This experiment deals with T1, Human KDR (Homo sapiens, UniProt P35968).
T1 construct: expressed in transfected cells; host or cells: NIH3T3 cells (mouse fibroblasts)
The experiment in a line: Inhibition of KDR phosphorylation in human KDR-transfected NIH3T3 cells (ELISA). In kind it is cell-based. Particulars: for Selection ratio (KDR phosphorylation IC50 / c-fms phosphorylation IC50): class 0-3; for IC50: human KDR-transfected NIH3T3 cells, VEGF 100 ng/ml, ELISA, read-out: KDR phosphorylation 50% inhibitory concentration (IC50). The method, then: Human KDR-transfected NIH3T3 cells (Sawano A et al., Cell Growth & Differentiation, 7, 213-221 (1996)) were cultured in a DMEM medium containing 10% fetal calf serum (purchased from GIBCO BRL) within a 5% carbon dioxide incubator until 50 to 70% confluent. The harvested cells were seeded into wells, containing the same medium, in a collagen type 1 coat 96-well flat-bottom plate in an amount of 1.5×10^4 per well, and cultured at 37° C. overnight. The medium was replaced with a 0.1% fetal calf serum-containing DMEM medium. The test compound dissolved in dimethyl sulfoxide was added to each well, and the cultivation was continued at 37° C. for additional one hr. A human recombinant vascular endothelial growth factor (hereinafter abbreviated to “VEGF”) was added to a final concentration of 100 ng/ml, followed by stimulation of cells at 37° C. for 2 min. The medium was removed, and the cells were washed with phosphate buffered saline (pH 7.4). A solubilization buffer (50 μl) (20 mM HEPES (pH 7.4), 150 mM NaCl, 0.2% Triton X-100, 10% glycerol, 5 mM sodium orthovanadylate, 5 mM disodium ethylenediaminetetraacetate, and 2 mM Na4P2O7) was then added thereto. The mixture was shaken at 4° C. for 2 hr to prepare a cell extract.
Separately, phosphate buffered saline (50 μl, pH 7.4) containing 5 μg/ml of anti-phospho-tyrosine antibody (PY20; purchased from Transduction Laboratories) was added to a microplate for ELISA (Maxisorp; purchased from NUNC), followed by standing at 4° C. overnight to be immobilized on the wells. After washing of the plate, 300 μl of a blocking solution was added, followed by standing at room temperature for 2 hr to perform blocking. After washing, the whole cell extract was transferred and was allowed to stand at 4° C. overnight. After washing, an anti-KDR antibody (purchased from Santa Cruz Biotechnology) was allowed to react at room temperature for one hr. Further, after washing, a peroxidase-labeled anti-rabbit Ig antibody (purchased from Amersham) was allowed to react at room temperature for one hr. After washing, a chromophoric substrate for peroxidase (purchased from Sumitomo Bakelite Co., Ltd.) was added thereto to initiate a reaction. After a suitable level of color development, a reaction termination solution was added to stop the reaction, and the absorbance at 450 nm was measured with a microplate reader. The KDR phosphorylation activity for each well was determined by presuming the absorbance without the addition of the test compound and with the addition of VEGF to be 100% KDR phosphorylation activity and the absorbance without the addition of the test compound and VEGF to be 0% KDR phosphorylation activity. The concentration of the test compound was varied on several levels, the KDR phosphorylation inhibitory rate was determined for each case, and the concentration of the test compound necessary for inhibiting 50% of KDR phosphorylation (IC50) was calculated.

T1 sequence (P35968 20-1356): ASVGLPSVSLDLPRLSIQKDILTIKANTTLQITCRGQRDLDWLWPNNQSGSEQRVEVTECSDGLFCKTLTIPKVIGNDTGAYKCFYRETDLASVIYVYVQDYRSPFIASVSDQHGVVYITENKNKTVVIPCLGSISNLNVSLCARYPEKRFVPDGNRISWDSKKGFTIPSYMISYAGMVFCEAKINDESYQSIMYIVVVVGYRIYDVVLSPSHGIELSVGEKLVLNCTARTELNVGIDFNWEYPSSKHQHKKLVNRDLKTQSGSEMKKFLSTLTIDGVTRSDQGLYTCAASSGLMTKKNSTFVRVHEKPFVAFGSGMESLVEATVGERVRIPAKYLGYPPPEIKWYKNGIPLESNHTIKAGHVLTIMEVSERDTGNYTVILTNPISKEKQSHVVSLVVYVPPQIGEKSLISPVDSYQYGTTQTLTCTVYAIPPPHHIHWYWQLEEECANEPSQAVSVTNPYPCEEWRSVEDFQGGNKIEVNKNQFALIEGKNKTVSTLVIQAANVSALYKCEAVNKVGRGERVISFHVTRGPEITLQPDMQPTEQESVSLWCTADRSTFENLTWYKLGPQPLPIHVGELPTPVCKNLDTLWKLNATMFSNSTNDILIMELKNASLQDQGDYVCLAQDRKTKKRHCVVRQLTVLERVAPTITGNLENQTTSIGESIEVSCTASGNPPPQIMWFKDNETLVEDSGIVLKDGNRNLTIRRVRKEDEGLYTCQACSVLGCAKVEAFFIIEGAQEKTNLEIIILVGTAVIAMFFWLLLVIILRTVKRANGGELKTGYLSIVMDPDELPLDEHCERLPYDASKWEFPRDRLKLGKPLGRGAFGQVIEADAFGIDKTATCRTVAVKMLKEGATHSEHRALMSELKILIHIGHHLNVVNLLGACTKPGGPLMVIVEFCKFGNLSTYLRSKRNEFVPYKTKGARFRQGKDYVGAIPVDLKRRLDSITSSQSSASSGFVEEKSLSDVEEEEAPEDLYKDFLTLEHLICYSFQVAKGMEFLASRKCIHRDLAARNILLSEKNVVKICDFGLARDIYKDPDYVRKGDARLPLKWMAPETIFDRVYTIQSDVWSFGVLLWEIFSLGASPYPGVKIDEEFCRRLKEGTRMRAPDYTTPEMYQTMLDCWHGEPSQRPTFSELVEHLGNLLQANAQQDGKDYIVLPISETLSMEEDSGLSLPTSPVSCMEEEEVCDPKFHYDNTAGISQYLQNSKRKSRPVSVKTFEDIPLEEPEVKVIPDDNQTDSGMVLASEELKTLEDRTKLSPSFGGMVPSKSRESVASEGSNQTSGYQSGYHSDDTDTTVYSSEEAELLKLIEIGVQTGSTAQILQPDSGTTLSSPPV

In the case of `COc1cc2nccc(Oc3ccc(NC(=O)N[C@H](C)c4ccc(F)cc4)c(C(F)(F)F)c3)c2cc1OC` [Example 21, N-[4-[(6,7-Dimethoxy-4-quinolyl)oxy]-2-(trifluoromethyl)phenyl]-N′-[(1R)-1-(4-fluorophenyl)ethyl]urea], the “Selection ratio (KDR phosphorylation IC50 / c-fms phosphorylation IC50)” value was 0 (KDR phosphorylation 50% inhibitory concentration [μM]/c-fms phosphorylation 50% inhibitory concentration [μM] was less than 5) and the IC50 was 2.1 nM.
On the same counts, the results for `COc1cc2nccc(Oc3ccc(NC(=O)NC(C)c4ccc(F)cc4)cc3OC)c2cc1OC` (centres unmarked) [Example 22, N-{4-[(6,7-Dimethoxy-4-quinolyl)oxy]-3-methoxyphenyl}-N′-[1-(4-fluorophenyl)ethyl]urea] are 0 (KDR phosphorylation 50% inhibitory concentration [μM]/c-fms phosphorylation 50% inhibitory concentration [μM] was less than 5) and 3.9 nM.
For the compound `COc1cc2nccc(Oc3ccc(NC(=O)N[C@@H](C)c4ccc(F)cc4)cc3OC)c2cc1OC` [Example 23, N-{4-[(6,7-Dimethoxy-4-quinolyl)oxy]-3-methoxyphenyl}-N′-[(1S)-1-(4-fluorophenyl)ethyl]urea], the “Selection ratio (KDR phosphorylation IC50 / c-fms phosphorylation IC50)” value is reported as 3 (when the value was 50 or more) and the IC50 amounted to 600 nM.
For `COc1cc2nccc(Oc3ccc(NC(=O)N[C@H](C)c4ccc(F)cc4)cc3OC)c2cc1OC` [Example 24, N-{4-[(6,7-Dimethoxy-4-quinolyl)oxy]-3-methoxyphenyl}-N′-[(1R)-1-(4-fluorophenyl)ethyl]urea] the same measures were 0 (KDR phosphorylation 50% inhibitory concentration [μM]/c-fms phosphorylation 50% inhibitory concentration [μM] was less than 5) and 2.4 nM.
For `COc1cc2nccc(Oc3ccc(NC(=O)NC(C)c4ccc(F)cc4)c(C)c3C)c2cc1OC` (centres unmarked) [Example 25, N-{4-[(6,7-Dimethoxy-4-quinolyl)oxy]-2,3-dimethylphenyl}-N′-[1-(4-fluorophenyl)ethyl]urea] the same measures were 0 (KDR phosphorylation 50% inhibitory concentration [μM]/c-fms phosphorylation 50% inhibitory concentration [μM] was less than 5) and 3.5 nM.
As for `COc1cc2nccc(Oc3ccc(NC(=O)N[C@@H](C)c4ccc(F)cc4)c(C)c3C)c2cc1OC` [Example 26, N-{4-[(6,7-Dimethoxy-4-quinolyl)oxy]-2,3-dimethylphenyl}-N′-[(1S)-1-(4-fluorophenyl)ethyl]urea], the “Selection ratio (KDR phosphorylation IC50 / c-fms phosphorylation IC50)” value is listed as 1 (when the value was 5 or more) and the IC50 is 155 nM.
On the same counts, the results for `COc1cc2nccc(Oc3ccc(NC(=O)N[C@H](C)c4ccc(F)cc4)c(C)c3C)c2cc1OC` [Example 27, N-{4-[(6,7-Dimethoxy-4-quinolyl)oxy]-2,3-dimethylphenyl}-N′-[(1R)-1-(4-fluorophenyl)ethyl]urea] are 0 (KDR phosphorylation 50% inhibitory concentration [μM]/c-fms phosphorylation 50% inhibitory concentration [μM] was less than 5) and 2 nM.
On the same counts, the results for `COc1cc2nccc(Oc3ccc(NC(=O)NC(C)c4ccc(F)cc4)c(F)c3)c2cc1OC` (centres unmarked) [Example 28, N-{4-[(6,7-Dimethoxy-4-quinolyl)oxy]-2-fluorophenyl}-N′-[1-(4-fluorophenyl)ethyl]urea] are 0 (KDR phosphorylation 50% inhibitory concentration [μM]/c-fms phosphorylation 50% inhibitory concentration [μM] was less than 5) and below 1 nM.
On the same counts, the results for `COc1cc2nccc(Oc3ccc(NC(=O)N[C@@H](C)c4ccc(F)cc4)c(F)c3)c2cc1OC` [Example 29, N-{4-[(6,7-Dimethoxy-4-quinolyl)oxy]-2-fluorophenyl}-N′-[(1S)-1-(4-fluorophenyl)ethyl]urea] are 2 (when the value was 10 or more) and 27.3 nM.
`COc1cc2nccc(Oc3ccc(NC(=O)N[C@H](C)c4ccc(F)cc4)c(F)c3)c2cc1OC` [Example 30, N-{4-[(6,7-Dimethoxy-4-quinolyl)oxy]-2-fluorophenyl}-N′-[(1R)-1-(4-fluorophenyl)ethyl]urea]: the “Selection ratio (KDR phosphorylation IC50 / c-fms phosphorylation IC50)” value is 0 (KDR phosphorylation 50% inhibitory concentration [μM]/c-fms phosphorylation 50% inhibitory concentration [μM] was less than 5) and the IC50 was below 1 nM.
As to `COc1cc2nccc(Oc3ccc(NC(=O)NC(C)c4ccc(F)cc4)cc3F)c2cc1OC` (centres unmarked) [Example 31, N-{4-[(6,7-Dimethoxy-4-quinolyl)oxy]-3-fluorophenyl}-N′-[1-(4-fluorophenyl)ethyl]urea], the “Selection ratio (KDR phosphorylation IC50 / c-fms phosphorylation IC50)” value is 0 (KDR phosphorylation 50% inhibitory concentration [μM]/c-fms phosphorylation 50% inhibitory concentration [μM] was less than 5) and the IC50 was 1 nM.
On the same counts, the results for `COc1cc2nccc(Oc3ccc(NC(=O)N[C@@H](C)c4ccc(F)cc4)cc3F)c2cc1OC` [Example 32, N-{4-[(6,7-Dimethoxy-4-quinolyl)oxy]-3-fluorophenyl}-N′-[(1S)-1-(4-fluorophenyl)ethyl]urea] are 1 (when the value was 5 or more) and 29.4 nM.
Regarding `COc1cc2nccc(Oc3ccc(NC(=O)N[C@H](C)c4ccc(F)cc4)cc3F)c2cc1OC` [Example 33, N-{4-[(6,7-Dimethoxy-4-quinolyl)oxy]-3-fluorophenyl}-N′-[(1R)-1-(4-fluorophenyl)ethyl]urea], the “Selection ratio (KDR phosphorylation IC50 / c-fms phosphorylation IC50)” value is 0 (KDR phosphorylation 50% inhibitory concentration [μM]/c-fms phosphorylation 50% inhibitory concentration [μM] was less than 5) and the IC50 is below 1 nM.
On the same counts, the results for `COc1cc2nccc(Oc3ccc(NC(=O)N[C@@H](C)c4ccc(Br)cc4)cc3)c2cc1OC` [Example 34, N-[(1S)-1-(4-Bromophenyl)ethyl]-N′-{4-[(6,7-dimethoxy-4-quinolyl)oxy]phenyl}urea] are 2 (when the value was 10 or more) and 296 nM.
On the same counts, the results for `COc1cc2nccc(Oc3ccc(NC(=O)N[C@@H](C)c4ccccc4OC)cc3)c2cc1OC` [Example 51, N-{4-[(6,7-Dimethoxy-4-quinolyl)oxy]phenyl}-N′-[(1S)-1-(2-methoxyphenyl)ethyl]urea] are 1 (when the value was 5 or more) and 38.2 nM.
For `COc1cc2nccc(Oc3ccc(NC(=O)N[C@H](C)c4ccccc4OC)cc3)c2cc1OC` [Example 52, N-{4-[(6,7-Dimethoxy-4-quinolyl)oxy]phenyl}-N′-[(1R)-1-(2-methoxyphenyl)ethyl]urea] the same measures were 0 (KDR phosphorylation 50% inhibitory concentration [μM]/c-fms phosphorylation 50% inhibitory concentration [μM] was less than 5) and 7.2 nM.
With `COc1ccc([C@H](C)NC(=O)Nc2ccc(Oc3ccnc4cc(OC)c(OC)cc34)cc2)cc1` [Example 53, N-{4-[(6,7-Dimethoxy-4-quinolyl)oxy]phenyl}-N′-[(1S)-1-(4-methoxyphenyl)ethyl]urea], the “Selection ratio (KDR phosphorylation IC50 / c-fms phosphorylation IC50)” value is 2 (when the value was 10 or more) and the IC50 turned out to be 37.4 nM.
On the same counts, the results for `COc1ccc([C@@H](C)NC(=O)Nc2ccc(Oc3ccnc4cc(OC)c(OC)cc34)cc2)cc1` [Example 54, N-{4-[(6,7-Dimethoxy-4-quinolyl)oxy]phenyl}-N′-[(1R)-1-(4-methoxyphenyl)ethyl]urea] are 1 (when the value was 5 or more) and 574 nM.
For `COc1cc2nccc(Oc3ccc(NC(=O)N[C@H](C)c4cccc(Br)c4)c(Cl)c3)c2cc1OC` [Example 55, N-[(1R)-1-(3-Bromophenyl)ethyl]-N′-{2-chloro-4-[(6,7-dimethoxy-4-quinolyl)oxy]phenyl}urea] the same measures were 0 (KDR phosphorylation 50% inhibitory concentration [μM]/c-fms phosphorylation 50% inhibitory concentration [μM] was less than 5) and 1.6 nM.
